This experiment has as its system red blood cells (RBCs). In words: Deformability and mobility of glutaraldehyde-treated red blood cells at slits of the microfluidic device. The experiment is classed as cell-based. The source says: FIG. 4 illustrates embodiments of: A. red blood cells (RBCs) aligned at the entrance of a 1 μm slit under a pressure difference of 40 kPa. […] Because the surface-area to volume ratio of RBCs is constrained, they are unable to pass through slits less than a certain gap width apart. B. RBCs treated with 0.1% Glutaraldehyde (GA) maintain their biconcave structure at the entrance of 2 μm slits under a pressure difference of 40 kPa. Glutaraldehyde cross-links proteins in the membrane and in the cytosol of RBCs, making them stiffer. […] C. Mobility vs. GA concentration. […] The slit gap is the vertical gap that defines the spacing between the two substrates at the trenches area. These are the shallow regions of a unit of the sorter.
With reference to FIG. 4A, a solution of PBS 1× and 0.2% w/v Pluronic F108 (a surfactant) and Bovine Serum Albumin 1% w/v (another surfactant) was prepared. The device was filled with this solution by applying pressure to one of the reservoirs. 1 μL of whole blood was mixed with 100 μL of this solution. The mixture was injected into the entrance reservoir of the device shown by using a syringe. The pressure difference between the two reservoirs was 40 kPa and was generated by using a pressure regulator. The cell concentration was approximately 0.5% hematocrit. Mobility was measured by tracking individual cells over a distance of 100 μm.

The structures appear in SMILES notation.

With `O=CCCCC=O` [Glutaraldehyde], for the setting “RBCs treated with 0.1% Glutaraldehyde, 2 μm slits, pressure difference 40 kPa”, the “Ability of treated RBCs to deform and pass through slits” value is on record as “unable to pass through 2 μm slits”. Besides, the “Mobility vs. GA concentration” value (higher GA concentration, given ambient fluid velocity) is reported as “decreased mobility”.
